Data published in US20060003993A1, “Benzotriazepnes as gastrin and cholecystokinin receptor ligands” (James Black Foundation Limited, priority 2001, published 2006).

Key:
gastrin (CCK2) receptors = biological target: T1, gastrin (CCK2) receptors (Rattus norvegicus, UniProt P30553); assay: immature rat stomach assay, gastrin (CCK2) antagonist activity; type: cell-based; details: pentagastrin dose-response curves, acid secretion
T1 construct: The stomach was excised and flushed with ca. 1 ml of unbuffered physiological saline solution; from tissue; host or cells: isolated lumen-perfused stomach of immature rats (ca. 21 days old)
T1 sequence (P30553 1-452): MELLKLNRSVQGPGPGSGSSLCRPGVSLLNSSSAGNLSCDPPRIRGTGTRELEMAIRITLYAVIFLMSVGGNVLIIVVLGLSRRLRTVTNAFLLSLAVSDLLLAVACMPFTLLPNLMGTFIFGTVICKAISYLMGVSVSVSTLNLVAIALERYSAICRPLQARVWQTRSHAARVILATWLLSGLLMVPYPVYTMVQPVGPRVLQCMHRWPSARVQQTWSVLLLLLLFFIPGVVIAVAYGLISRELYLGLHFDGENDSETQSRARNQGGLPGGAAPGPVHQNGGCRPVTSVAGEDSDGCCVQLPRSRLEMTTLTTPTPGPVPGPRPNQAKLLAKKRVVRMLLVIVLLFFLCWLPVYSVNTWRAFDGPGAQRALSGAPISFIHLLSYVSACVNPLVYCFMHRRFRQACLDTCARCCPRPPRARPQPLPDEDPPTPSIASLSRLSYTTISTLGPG
Method: The compounds of the examples were tested for gastrin (CCK2) antagonist activity in an immature rat stomach assay. The procedure was as follows:
The oesophagus of immature rats (33-50 g, ca. 21 days old) was ligated at the level of the cardiac sphincter and the duodenal sphincter was cannulated. The stomach was excised and flushed with ca. 1 ml of unbuffered physiological saline solution. The fundus was punctured and cannulated. A further 4-5 ml of unbuffered solution was flushed through the stomach to ensure the preparation was not leaking. […] The stomach was continuously perfused at a rate of 1 ml min^−1 with unbuffered solution gassed with 100% O2 with the perfusate passing over an internally referenced pH-electrode fixed 12 cm above the stomach.
After 120 min of stabilisation the drugs were added directly to the serosal solution in the organ bath and after a further 60 min cumulative pentagastrin dose-response curves were started.

[1] = biological target: T2, human gastrin (CCK2) receptors (Homo sapiens, UniProt P32239); assay: [125I]-BH-CCK-8S competition binding at human CCK2 receptors cloned into NIH3T3 cells; details: hCCK2 receptor, NIH3T3 clone 7 membranes, [125I]-BH-CCK-8S 200 pM, 150 min at 21° C.
T2 construct: amplified by PCR (polymerase chain reaction) from the start codon to the stop codon; expressed in transfected cells
T2 sequence (P32239 1-447): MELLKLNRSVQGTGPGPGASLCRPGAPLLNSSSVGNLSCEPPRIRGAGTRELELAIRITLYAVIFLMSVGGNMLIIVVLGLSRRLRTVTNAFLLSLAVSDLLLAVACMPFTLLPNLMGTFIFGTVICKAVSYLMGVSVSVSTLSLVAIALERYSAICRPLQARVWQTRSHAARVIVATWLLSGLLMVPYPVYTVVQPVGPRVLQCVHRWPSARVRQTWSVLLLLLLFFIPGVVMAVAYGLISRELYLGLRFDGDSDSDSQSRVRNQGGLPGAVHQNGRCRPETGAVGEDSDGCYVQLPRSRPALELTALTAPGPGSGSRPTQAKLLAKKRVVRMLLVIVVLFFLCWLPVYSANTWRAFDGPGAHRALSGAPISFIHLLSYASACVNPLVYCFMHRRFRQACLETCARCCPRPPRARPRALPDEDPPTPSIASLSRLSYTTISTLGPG
Description: Step a: Subcloning of IMAGE Clone Encoding the Human CCK2R into a Mammalian Expression Vector
I.M.A.G.E. (Integrated Molecular Analysis of Genomes and their Expression) clone number 3504160 (Lennon et al. Genomics 33, 151-152 (1996)) was purchased from the HGMP (Human Genome Mapping Project, Cambridge). The cDNA encoding the mRNA for the human CCK2R, corresponding to accession number BC000740, was present in vector pOTB7 in host cell DH10B. The cells, initially streaked on to LB-Agar plates containing 20 μg/ml chloramphenicol, were then grown in LB containing 20 μg/ml chloramphenicol with shaking at 37° C. according to standard techniques (Current Protocols in Molecular Biology, Wiley). DNA was prepared using the QIAGEN® EndoFree™ plasmid Maxi kit (Qiagen Ltd.) according to the manufacturer's protocol. The DNA was then amplified by PCR (polymerase chain reaction) from the start codon to the stop codon using primers containing restriction sites, Eco R1 and Xba I respectively, to facilitate uni-directional cloning. […]
The PCR product was purified using the QIAGEN® MinElute™ PCR purification kit, according to the manufacturer's instructions. […] The digested DNA bands of the correct size, analysed by ethidium bromide stained agarose/TBE gels, were excised and purified using QIAGEN@ MinElute™ gel extraction kit, according to the manufacturer's instructions. […]

SMILES	pKB rat stomach (gastrin (CCK2) receptors)	pKi ± s.e.mean [1]
Cc1cccc2c1C(C1CCCCC1)=NN(CC(=O)Nc1cccc(C(=O)O)c1)C(=O)N2CC(=O)C(C)(C)C [Example 114]	7.45 ± 0.43	
CNc1cc(NC(=O)CN2N=C(C3CCCCC3)c3ccccc3N(CC(O)C(C)(C)C)C2=O)cc(C(=O)OC)c1 (stereo not drawn) [Example 78]	6.49 ± 0.33	
Cc1cccc(NC(=O)N[C@@H]2N=C(c3ccccc3)c3ccccc3N(CC(=O)c3ccccc3C)C2=O)c1 [YM022]		10.19 ± 0.03
